{
  "source": "patent US20200345021A1",
  "about": "“METHOD AND SYSTEM FOR ENHANCING THE EFFICACY USING IONIZED/A[…] PEROXIDE IN REDUCING MICROBIAL POPULATIONS, METHOD OF USE THEREOF” (priority 2019, published 2020)",
  "key": {"[1]": {"tested_on": "E. coli O157:H7"}, "[2]": {"tested_on": "L. innocua", "conditions": "45 s treatment + 30 min dwell"}, "[3]": {"tested_on": "Salmonella Typhimurium", "assay_type": "cell-based", "conditions": "for Reductions of Salmonella, range over the fresh produce items: all tested produce items and surfaces, optimized conditions", "source_text": "To minimize the risk of possible bacteria becoming airborne during treatments, attenuated and non-pathogenic bacteria were used in the study. Two strains of non-pathogenic S. Typhimurium (ATCC 53647 and 53648) and three strains of L. innocua (ATCC 33090, ATCC 51742 and ATCC BAA680) were obtained from American Type Culture Collection (ATCC) (Manassas, Va., USA). Further studies used E. coli O157:H7 (ATCC 700728), S. Typhimurium (ATCC 53647 and 53648), and L. innocua (ATCC 33090) obtained from American Type Culture Collection (ATCC) (Manassas, Va., USA) and maintained as a part of the culture collection at the USDA Eastern Regional Research Center (Wyndmoor, Pa. USA). The bacteria were made to be resistant to nalidixic acid by successive growth in Trypic Soy Broth (TSB) (Difco, Sparks, Md., USA) with increasing nalidixic acid concentrations. All strains were stored at −80° C. in 1 mL of TSB containing 10% glycerol. Working cultures of S. Typhimurium and L. innocua were maintained in 9 mL TSB (supplemented with 100 μg/mL nalidixic acid for S. Typhimurium) at 4° C. after incubating at 37° C. for […], respectively, and sub-cultured each time.\nEach strain of S. Typhimurium and L. innocua was cultured in 9 mL TSB (supplemented with 100 μg/mL nalidixic acid for S. Typhimurium) and incubated at 37° C. for 40 h and 48 h, respectively, harvested by centrifugation at 4000×g for 10 min at 4° C., and resuspended in 9 mL sterile Buffered Peptone Water (BPW; Difco). The pellets were resuspended in BPW to form cell suspensions with a final concentration of 108˜10^9 CFU/mL. Subsequently, suspended pellets of two strains of Salmonella and three strains of L. innocua were combined to obtain two separate culture cocktails.\nGrape tomatoes, granny smith apples, romaine lettuce and cantaloupes were purchased from local markets (Philadelphia, Pa., USA) and kept at 10° C. prior to use. Fruits and vegetables were removed from 10° C. refrigeration and equilibrated to ambient temperature before being inoculated. Romaine lettuce was divided into upper green leaf and midrib tissues. Six tomatoes, six pieces (2×2 cm) of apple skins, five pieces (3×3 cm) of Romaine lettuce upper leaves, five pieces (3 cm length) of Romaine lettuce midrib area and six pieces (2×2 cm) of cantaloupe rinds with 2×3 mm thickness of flesh were used for each treatment per replicate. Bach piece w as spot inoculated with 10 μL of Salmonella and L. innocua by depositing droplets with a micropipette. The inoculated samples were dried in a bio-hood for 1 h (for tomato surfaces, romaine lettuce, apple skins and cantaloupe rinds) or 2 h (for tomato stem scars) at ambient temperature.\nProduce items were placed onto a sterile test tube rack with the inoculated area facing up and the rack with produce pieces were placed inside of a treatment chamber (12×12×24 inch).\nTherefore, each kind of produce was treated with and without cold plasma ionized under the same optimized conditions.\nAfter each treatment, the tomato stem scars and surfaces with the inoculated bacteria were removed using a pair of sterile scissors. Each type of produce item from the same treatment was combined (total weight: 1.51±0.29 g for tomato stem scars; 2.07±0.15 g for tomato surfaces; 6.37±0.92 g for apple skins; 1.62±0.34 g for Romaine lettuce upper leaves: 13.30±2.97 g for Romaine lettuce midrib tissues: 9.58±1.26 g for cantaloupe rinds) and transferred into an 80 mL filtered stomacher bag. After addition of 30 mL BBL buffered peptone water into the bag, the sample in the bag was homogenized using a mini blender (Mini Mix CC, Interscience laboratories Inc., Woburn, Mass., USA) for 2 min at a setting of 4. […] Tryptic Soy Agar with 200 μg/mL pyruvate acid and 100 μg/mL nalidixic acid (TSA-PN) and PALCAM Agars (Difco) were used for the enumeration of S. Typhimurium and L. innocua, respectively."}, "[4]": {"tested_on": "total aerobic plate count (APC), native microorganisms", "conditions": "for Total plate count: not inoculated", "procedure": "(§1) The untreated (control) and treated samples were placed separately in a Stomacher bag with 20˜100 ml of neutralizing buffer and pummeled at 260 rpm for 2 mm using Stomacher (Interscience Laboratories Inc.). Decimal dilutions of the samples were made with 0.1% peptone (Difco) and aliquots (0.1 or 1 ml) were spread plated in duplicate onto TSA with incubation at 37° C. for 24 h for the enumeration of total aerobic plate count (APC), and onto Dichloran Rose Bengal Chlortetracycline (DRBC, Difco) agar with incubation at 25° C. for 5 days for enumeration of yeast and mold. DRBC plates were wrapped with aluminum foil to […]. Experiments were conducted independently 8 times. Colonies were counted and reported as log CFU/piece.\n(§2) Produce items were placed onto a sterile test tube tack with inoculated area facing up. […] The distance and voltage between the two electrodes were 9 mm and 17 kV, respectively. […] After 45 s treatment, the chamber was sealed for 30 mins (dwell time) before removal of the fresh produce items. Experiment; were repeated three times."}, "[5]": {"tested_on": "yeast and mold", "conditions": "for Yeast and mold count: not inoculated", "procedure": "as §1, §2"}, "[6]": {"conditions": "Cantaloupe rind, 30 s spray time + 30 min dwell, listed as H2O2 + cold plasma"}, "[7]": {"conditions": "Romaine lettuce-midrib, 30 s spray time + 30 min dwell, listed as H2O2 + cold plasma"}, "[8]": {"conditions": "Romaine lettuce-upper leaf, 30 s spray time + 30 min dwell, listed as H2O2 + cold plasma"}, "[9]": {"conditions": "Tomato-stem scar, three cycles of 20 s spray time plus 20 min dwell time, listed as H2O2 + cold plasma"}},
  "note": "“And” between values parts separate entries of the source, which are not always exact repeats. Equal entries are not always repeated. Where two headings read alike, the source gives them in different places. Marks after values point to notes of the source that are not given here.",
  "data": [
    {"smiles": "OO", "note": "[H2O2, hydrogen peroxide]", "values": [
      {"measurement": "Reduction of E. coli populations", "setting": "[1]", "value": 1.5, "unit": "log"},
      {"measurement": "Populations of L. innocua", "setting": "[2]; cantaloupe", "value": "3.5 +/− 0.2b log CFU/piece"},
      {"measurement": "Reduction of L. innocua", "setting": "[2]; cantaloupe", "value": 3.0, "unit": "log CFU/piece"},
      {"measurement": "Populations of L. innocua", "setting": "[2]; spinach", "value": "2.5 +/− 1.9b log CFU/piece"},
      {"measurement": "Reduction of L. innocua", "setting": "[2]; surface of spinach leaves", "value": 4.0, "unit": "log CFU/leaf"},
      {"measurement": "Reduction of L. innocua", "setting": "[2]; tomato stem scar area, listed as ionized/aerosolized hydrogen peroxide (H2O2)", "value": "1.0-1.3 log CFU/piece and 1.3 log CFU/piece"},
      {"measurement": "Populations of L. innocua", "setting": "[2]; tomato stem scar", "value": "4.9 +/− 0.4b log CFU/piece"},
      {"measurement": "Populations of Salmonella Typhimurium", "setting": "[3]; [6]", "value": "3.76 ± 0.53^c log CFU/piece"},
      {"measurement": "Reductions of Salmonella Typhimurium", "setting": "[3]; [6]", "value": "2.61 ± 0.53^x log CFU/piece"},
      {"measurement": "Reductions of Salmonella Typhimurium", "setting": "[3]; Granny Smith apples, 8 s spray time + 30 min dwell, listed as H2O2 + cold plasma", "value": "5.50 ± 0.19^x log CFU/piece"},
      {"measurement": "Reductions of Salmonella Typhimurium", "setting": "[3]; Granny Smith apples, 8 s spray time + 30 min dwell, listed as iHP", "value": "> 5", "unit": "log CFU/piece"},
      {"measurement": "Populations of Salmonella Typhimurium", "setting": "[3]; [7]", "value": "2.54 ± 0.32^c log CFU/piece"},
      {"measurement": "Reductions of Salmonella Typhimurium", "setting": "[3]; [7]", "value": "3.40 ± 0.32^x log CFU/piece"},
      {"measurement": "Populations of Salmonella Typhimurium", "setting": "[3]; [8]", "value": "3.54 ± 0.11^c log CFU/piece"},
      {"measurement": "Reductions of Salmonella Typhimurium", "setting": "[3]; [8]", "value": "2.88 ± 0.11^x log CFU/piece"},
      {"measurement": "Populations of Salmonella Typhimurium", "setting": "[3]; [9]", "value": "3.60 ± 0.70^c log CFU/piece"},
      {"measurement": "Reductions of Salmonella Typhimurium", "setting": "[3]; [9]", "value": "2.35 ± 0.30^x log CFU/piece"},
      {"measurement": "Reductions of Salmonella Typhimurium", "setting": "[3]; Tomato-surface, 8 s spray time + 30 min dwell, listed as H2O2 + cold plasma", "value": "5.28 ± 0.49^x log CFU/piece"},
      {"measurement": "Reductions of Salmonella Typhimurium", "setting": "[3]; Tomato-surface, 8 s spray time + 30 min dwell, listed as iHP", "value": "> 5", "unit": "log CFU/piece"},
      {"measurement": "Reductions of Salmonella, range over the fresh produce items", "setting": "[3]; listed as hydrogen peroxide (H2O2) with cold plasma", "value": "2.35-5.50 log CFU/piece"},
      {"measurement": "Reductions of Salmonella, range over the fresh produce items", "setting": "[3]; listed as iHP", "value": "2.35-5.50 log CFU/piece"},
      {"measurement": "Total plate count", "setting": "[4]; cantaloupe", "value": "4.6 +/− 1.2a Log CFU/piece"},
      {"measurement": "Reduction in APC", "setting": "[4]; spinach leaves", "value": 1.3, "unit": "log"},
      {"measurement": "Total plate count", "setting": "[4]; spinach", "value": "4.7 +/− 1.3b Log CFU/piece"},
      {"measurement": "Total plate count", "setting": "[4]; tomato", "value": "5.4 +/− 0.5b Log CFU/piece"},
      {"measurement": "Reduction in APC", "setting": "[4]; tomatoes", "value": 0.5, "unit": "log"},
      {"measurement": "Yeast and mold count", "setting": "[5]; cantaloupe", "value": "4.7 +/− 0.9a Log CFU/piece"},
      {"measurement": "Reduction of yeast and mold count", "setting": "[5]; spinach", "value": 2.2, "unit": "log"},
      {"measurement": "Yeast and mold count", "setting": "[5]; spinach", "value": "4.2 +/− 2.0b Log CFU/piece"},
      {"measurement": "Reduction of yeast and mold count", "setting": "[5]; tomato", "value": 3.9, "unit": "log"},
      {"measurement": "Yeast and mold count", "setting": "[5]; tomato", "value": "2.2 +/− 1.5b Log CFU/piece"}
    ]}
  ]
}
